Source: publication PMC11855207, “Synthesis and Evaluation of Aromatic A-Ring 23-Oxavitamin D3 Analogues as Hedgehog Pathway Inhibitors” (International Journal of Molecular Sciences, 2025)

Assays:
[1] = test system: VDR signaling (Cyp24A1 mRNA) in C3H10T1/2 cells; experiment: Cyp24A1 mRNA up-regulation (qPCR) in C3H10T1/2 cells; format: cell-based, mouse; conditions: 24 h, relative to DMSO (set to 1.0); for fold induction at 5 µM: Mus musculus, C3H 10T1/2, 5 μM with OHCs 5 μM; for Cyp24A1 mRNA (fold up-regulation): 5 μM with OHCs 5 μM
Method: (§1) The VD3 analogues were initially assessed for their ability to inhibit the Hh signaling pathway by evaluating the effects on endogenous Gli1 mRNA levels at a single concentration (5 μM) co-administration of oxysterols (OHCs; 20(S)-hydroxycholesterol, 22(S)-hydroxycholesterol at 5 μM each) in C3H10T1/2 cells, an Hh-dependent mouse embryonic fibroblast (MEF) cell line. […] VD3 derivatives may retain some VDR agonistic activity, thereby compromising the selectivity of these compounds as Hh inhibitors. The selectivity profile of the analogues for Hh inhibition, compared to typical VDR activation, was assessed by measuring the ability to up-regulate Cyp24a1 mRNA levels in the same cellular system and by evaluating their binding to VDR using a fluorescence polarization-based competition assay (Table 1).
(§2) Mouse embryonic fibroblast cell line (C3H10T1/2, wild-type, VDR^−/−, SuFu^−/−), mouse keratinocyte cell line (ASZ001), and human embryonic kidney cell line (HEK293T) were purchased from China Center for Type Culture Collection (CCTCC; Wuhan, Hubei, China) and cultured under standard protocols. […] Therefore, they can be used to assess the inhibitory strength of the Hh signaling and the selectivity of the VDR signaling. VDR^−/− and SuFu^−/− C3H10T1/2 cells were used to study compounds selectivity for Hh and VDR signaling. If compounds regulate Hh signaling independently of VDR, their ability to down-regulate Gli1 mRNA expression should be abolished in SuFu^−/− C3H10T1/2 cells. […] The loss of Ptch in ASZ001 cells […], so down-regulating Gli1 reflects direct Smo inhibition by the compound. Comparing results from ASZ001 and C3H10T1/2 cells highlights the compound’s inhibition of the Hh signaling pathway.
(§3) RNA isolation in C3H10T1/2 cells was performed in 24-well plates (50,000 cells plated; TRIZOL Reagent); in ASZ001, cells were done in 35 mm dishes (300,000 cells plated; TRIZOL Reagent). cDNA synthesis was performed utilizing the SweScript All-in-One RT SuperMix Kit (Servicebio, Wuhan, China) per the manufacturer’s instructions on a BioRad S1000 Thermal Cycler (Hercules, CA, USA). qPCR (Hh signaling pathway and VDR) analysis of target genes was performed on Step OnePlus (ABI) using the Taqman Gene Expression Assays: mouse ActB (Mm00607939_s1), mouse GLI1 (Mm00494645_ml), mouse PTCH1(Mm00436026_m1), and mouse CYP24A1 (Mm00487244_ml). Relative gene expression levels were computed via the ΔΔCt method. ActinB mRNA expression levels of all samples were normalized to DMSO control ActinB mRNA levels (vehicle; set at 1.00). […] The mRNA expression levels from drug-treated samples were compared to OHCs levels (Gli1, PTCH) and DMSO control (Cyp24A1).

[2] = biological target: T1, recombinant VDR (Homo sapiens, UniProt P11473); experiment: VDR binding, fluorescence polarization-based competition assay (PolarScreen VDR Competitor Assay Red); conditions: compounds evaluated at 100 μM
T1 construct: purchased Thermo Fisher Scientific
T1 sequence (P11473 1-427): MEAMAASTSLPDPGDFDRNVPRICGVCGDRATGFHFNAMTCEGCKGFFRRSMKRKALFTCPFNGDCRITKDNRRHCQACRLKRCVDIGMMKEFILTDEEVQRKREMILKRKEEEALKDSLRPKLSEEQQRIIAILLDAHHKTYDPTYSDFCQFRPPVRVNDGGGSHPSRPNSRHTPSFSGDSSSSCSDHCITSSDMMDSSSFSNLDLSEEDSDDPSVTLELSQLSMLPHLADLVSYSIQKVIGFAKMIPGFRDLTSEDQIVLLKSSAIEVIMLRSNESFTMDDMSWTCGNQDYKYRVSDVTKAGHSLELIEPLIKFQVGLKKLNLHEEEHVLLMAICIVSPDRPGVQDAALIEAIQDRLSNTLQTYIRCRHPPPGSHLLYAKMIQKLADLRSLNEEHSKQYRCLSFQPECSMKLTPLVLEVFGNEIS
Method: as §1
VDR binding assay was performed using a PolarScreen VDR Competitor Assay Red kit (Thermo Fisher Scientific, Carlsbad, CA, USA) per the manufacturer’s instructions. Compounds were evaluated at 100 μM in 2.5% final DMSO in triplicate. Calcitriol is utilized as a positive control for VDR binding.

[3] = test system: Hh signaling pathway (Gli1 mRNA) in C3H10T1/2 cells; experiment: Gli1 mRNA down-regulation (qPCR) in OHC-stimulated C3H10T1/2 cells; format: cell-based, mouse; conditions: for mrna remaining at 5 µM / IC50: Mus musculus; for mrna remaining at 5 µM: C3H 10T1/2, 5 μM with OHCs 5 μM; for mrna remaining at 5 µM / Gli1 mRNA (%): 24 h, relative Gli1 mRNA levels compared to OHCs (set to 100%); for Gli1 mRNA (%): 5 μM with OHCs 5 μM; for IC50: C3H 10T1/2, mean ± SEM
Method: as §1, §2, §3

[4] = test system: Hh signaling pathway (Gli1 mRNA) in ASZ001 cells; experiment: Gli1 mRNA down-regulation (qPCR) in ASZ001 cells; format: cell-based; conditions: Mus musculus; ASZ001 cells; mean ± SEM; read-out: Gli1 IC50
Method: Mouse embryonic fibroblast cell line (C3H10T1/2, wild-type, VDR^−/−, SuFu^−/−), mouse keratinocyte cell line (ASZ001), and human embryonic kidney cell line (HEK293T) were purchased from China Center for Type Culture Collection (CCTCC; Wuhan, Hubei, China) and cultured under standard protocols [16]. […] The loss of Ptch in ASZ001 cells prevents Smo inhibition, so down-regulating Gli1 reflects direct Smo inhibition by the compound.
(§4) RNA isolation in C3H10T1/2 cells was performed in 24-well plates (50,000 cells plated; TRIZOL Reagent); in ASZ001, cells were done in 35 mm dishes (300,000 cells plated; TRIZOL Reagent). cDNA synthesis was performed utilizing the SweScript All-in-One RT SuperMix Kit (Servicebio, Wuhan, China) per the manufacturer’s instructions on a BioRad S1000 Thermal Cycler (Hercules, CA, USA). qPCR (Hh signaling pathway and VDR) analysis of target genes was performed on Step OnePlus (ABI) using the Taqman Gene Expression Assays [18, 29]: mouse ActB (Mm00607939_s1), mouse GLI1 (Mm00494645_ml), mouse PTCH1(Mm00436026_m1), and mouse CYP24A1 (Mm00487244_ml). Relative gene expression levels were computed via the ΔΔCt method. ActinB mRNA expression levels of all samples were normalized to DMSO control ActinB mRNA levels (vehicle; set at 1.00). […] The mRNA expression levels from drug-treated samples were compared to OHCs levels (Gli1, PTCH) and DMSO control (Cyp24A1).

[5] = test system: ASZ001 cells; experiment: Anti-proliferation (MTS) in ASZ001 cells; format: cell-based; conditions: Mus musculus, 48 h incubation, mean ± SEM
[6] = test system: primary Ptch-CKO MB cells; experiment: Anti-proliferation (MTS) in primary Ptch-CKO MB cells; format: cell-based; conditions: Mus musculus, 48 h incubation, mean ± SEM
Method: Ptch-CKO MB cells, derived from a conditional Patched knockout mouse, lack Ptch-like ASZ001 cells. Consequently, the inhibitory effect of the compound on Ptch-CKO MB cells directly reflects its suppression of the canonical Hh signaling pathway. Cell viability was assessed by MTS proliferation assay kit (Promega, Madison, WI, USA) according to the manufacturer’s protocol. Culture conditions and experimental protocols to determine GI50 values in the primary murine Ptch-CKO MB cells were as previously described.

[7] = test system: VDR signaling (Cyp24A1 mRNA) in ASZ001 cells; experiment: Cyp24A1 mRNA expression (qPCR) in ASZ001 cells; format: cell-based; conditions: Mus musculus; ASZ001 cells; 5 μM, 24 h; DMSO set to 1.0; read-out: Cyp24A1 mRNA levels relative to DMSO
Method: as §4

[8] = test system: Hh signaling pathway (Ptch mRNA) in C3H10T1/2 cells; experiment: Ptch mRNA down-regulation (qPCR) in C3H10T1/2 cells; format: cell-based; conditions: Mus musculus, C3H 10T1/2; C3H10T1/2 cells; mean ± SEM; read-out: Ptch IC50
Method: as §4

C[C@H](COCC(C)(C)O)[C@H]1CC[C@H]2[C@@H](OC(=O)c3cc([N+](=O)[O-])cc([N+](=O)[O-])c3)CCC[C@]12C [Compound 4f]
fold induction at 5 µM [1]: 131 ± 19.7 | VDR Binding [2]: >100 µM | mrna remaining at 5 µM [3]: 30.7 ± 2.5%

CC(C)COC[C@@H](C)[C@H]1CC[C@H]2[C@@H](O)CCC[C@]12C [Compound 2a]
Cyp24A1 mRNA (fold up-regulation) [1]: weak | fold induction at 5 µM [1]: 1.6 ± 0.3 | VDR Binding [2]: >100 µM | Gli1 mRNA (%) [3]: comparable to that of VD3 | mrna remaining at 5 µM [3]: 36.8 ± 3.6%

C[C@H](COCC(C)(C)O)[C@H]1CC[C@H]2[C@@H](O)CCC[C@]12C [Compound 2b]
Cyp24A1 mRNA (fold up-regulation) [1]: weak | fold induction at 5 µM [1]: 76.8 ± 6.3 | VDR Binding [2]: >100 µM | Gli1 mRNA (%) [3]: comparable to that of VD3 | mrna remaining at 5 µM [3]: 42.7 ± 3.4%

CC(C)COC[C@@H](C)[C@H]1CC[C@H]2[C@@H](OC(=O)c3ccc(Cl)cc3)CCC[C@]12C [Compound 3e]
fold induction at 5 µM [1]: 67.8 ± 4.8 | VDR Binding [2]: >100 µM | mrna remaining at 5 µM [3]: 23.5 ± 2.7%

COc1cccc(C(=O)O[C@H]2CCC[C@]3(C)[C@@H]([C@H](C)COCC(C)C)CC[C@@H]23)c1 [Compound 3d]
fold induction at 5 µM [1]: 13.5 ± 1.1 | VDR Binding [2]: >100 µM | mrna remaining at 5 µM [3]: 102 ± 8.4%

COc1ccc(C(=O)O[C@H]2CCC[C@]3(C)[C@@H]([C@H](C)COCC(C)(C)O)CC[C@@H]23)cc1 [Compound 4c]
fold induction at 5 µM [1]: 120 ± 18.6 | VDR Binding [2]: >100 µM | mrna remaining at 5 µM [3]: 76.5 ± 7.5%

CC(C)COC[C@@H](C)[C@H]1CC[C@H]2[C@@H](OC(=O)c3cc([N+](=O)[O-])cc([N+](=O)[O-])c3)CCC[C@]12C [Compound 3g]
fold induction at 5 µM [1]: 9.8 ± 1.4 | VDR Binding [2]: >100 µM | mrna remaining at 5 µM [3]: 32.1 ± 2.4%

COc1ccc(C(=O)O[C@H]2CCC[C@]3(C)[C@@H]([C@H](C)COCC(C)C)CC[C@@H]23)cc1 [Compound 3c]
fold induction at 5 µM [1]: 36.7 ± 2.9 | VDR Binding [2]: >100 µM | mrna remaining at 5 µM [3]: 89.6 ± 4.3%

CC(C)COC[C@@H](C)[C@H]1CC[C@H]2[C@@H](OC(=O)c3ccc(O)cc3)CCC[C@]12C [Compound 3k]
IC50 [4]: 6.2 ± 1.1 µM | GI50 [5]: > 20 µM | GI50 [6]: > 10 µM | fold induction at 5 µM [1]: 32.1 ± 3.2 | fold induction at 5 µM [7]: 5.8 ± 0.3 | VDR Binding [2]: >100 µM | mrna remaining at 5 µM [3]: 7.3 ± 1.9% | IC50 [3]: 3.8 ± 0.4 µM | IC50 [8]: 10.3 ± 1.1 µM

C[C@H](COCC(C)(C)O)[C@H]1CC[C@H]2[C@@H](OC(=O)c3cccc(O)c3)CCC[C@]12C [Compound 4h]
IC50 [4]: 4.1 ± 0.5 µM | GI50 [5]: > 20 µM | GI50 [6]: > 10 µM | fold induction at 5 µM [1]: 87.4 ± 13.7 | fold induction at 5 µM [7]: 60.3 ± 6.4 | VDR Binding [2]: >100 µM | mrna remaining at 5 µM [3]: 3.8 ± 0.4% | IC50 [3]: 2.8 ± 0.2 µM | IC50 [8]: 5.7 ± 0.5 µM
